ChEMBL document CHEMBL1137324, “Novel selective orally active CRTH2 antagonists for allergic inflammation developed from in silico derived hits” (J Med Chem, 2006)

Legend:
[1] = target: T1, Prostaglandin D2 receptor 2 (Homo sapiens, UniProt Q9Y5Y4); assay: Antagonist activity against CRTH2 receptor measured as inhibition of PGD2-induced beta-arrestin translocation in HEK293 cells by BRET assay; type: functional, cell-based
T1 sequence (Q9Y5Y4 whole entry): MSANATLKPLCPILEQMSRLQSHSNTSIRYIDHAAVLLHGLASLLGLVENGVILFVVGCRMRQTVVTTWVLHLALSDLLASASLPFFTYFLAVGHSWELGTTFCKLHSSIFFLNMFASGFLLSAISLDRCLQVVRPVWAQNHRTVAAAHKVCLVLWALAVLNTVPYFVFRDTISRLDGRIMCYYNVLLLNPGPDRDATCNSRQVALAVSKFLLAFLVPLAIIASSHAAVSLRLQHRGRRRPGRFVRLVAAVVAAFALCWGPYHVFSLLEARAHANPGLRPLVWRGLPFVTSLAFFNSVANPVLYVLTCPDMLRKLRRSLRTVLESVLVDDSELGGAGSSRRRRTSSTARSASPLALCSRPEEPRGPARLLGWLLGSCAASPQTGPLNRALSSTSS

[2] = target: T1, Prostaglandin D2 receptor 2; assay: Displacement of [3H]PGD2 from human CRTH2 receptor expressed in HEK293 cells; type: cell-based
Mus musculus = assay: Inhibition of peribronchial eosinophilia in BALB/c mouse at 100 mg/kg, po relative to control; type: functional

Row | SMILES | IC50 [1] [nM] | IC50 [2] [nM] | inhibition in vivo at 100 mg/kg (Mus musculus) [%]
1 | O=C(O)COc1ccc(Br)cc1/C=N/Nc1nncc(-c2ccccc2)n1 | 3210 | 89 | 
2 | COc1ccc(OCC(=O)O)c(C(=O)c2cnn(-c3ccccc3)c2)c1 | 4200 | 151 | 
3 | CCOC(=O)COc1ccc(Br)cc1C(=O)c1cnn(-c2ccccc2)c1 | 3000 | 165 | 
4 | O=C(O)COc1ccc(Br)cc1CO | 6870 | 886 | 
5 | O=C(O)COc1ccccc1/C=N/NC(=O)Cn1cnc2ccccc21 | 81700 | 12800 | 
6 | Cc1cc(C(=O)N/N=C/c2ccccc2OCC(=O)O)[nH]n1 | > 100000 | 11200 | 
7 | O=C(O)COc1ccccc1/C=N/NC(=O)COc1ccc(Cl)cc1Cl | 6320 | 555 | 
8 | COc1ccc(-c2cnnc(N/N=C/c3ccccc3OCC(=O)O)n2)cc1 | > 100000 | 1580 | 
9 | CC(=O)c1cc(Br)ccc1OCC(=O)O | 4520 | 510 | 
10 | C[C@]12CCC(=O)C=C1CC[C@@H]1[C@@H]2[C@@H](O)C[C@@]2(C)[C@H]1CC[C@]2(O)C(=O)CO [HYDROCORTISONE] |  |  | 94
11 | Cc1ccc(NCC(=O)N/N=C/c2ccccc2OCC(=O)O)cc1 | 60200 | 3660 | 
12 | O=Cc1ccccc1OCC(=O)O | 50000 | 1970 | 
13 | O=C(O)COc1ccccc1C(=O)c1cnn(-c2ccccc2)c1 | 5350 | 510 | 
14 | O=C(O)COc1ccc(Br)cc1C(=O)c1ccno1 | 2650 | 391 | 
15 | O=C(O)COc1ccc(Br)cc1/C=N/Nc1ccccn1 | 3490 | 255 | 

Further lines, with some results ahead:

Row | IC50 [1] [nM] | IC50 [2] [nM] | SMILES | inhibition in vivo at 100 mg/kg (Mus musculus) [%]
16 | 185 | 15 | O=C(O)COc1ccc(Cl)cc1C(=O)c1cnn(-c2ccccc2)c1 | 
17 | 423 | 61 | CC(C)(C)c1cc(Br)ccc1OCC(=O)O | 
18 | 53 | 3.6 | COc1ccc(-n2cc(C(=O)c3cc(Br)ccc3OCC(=O)O)cn2)cc1 | 
19 | 437 | 53 | O=C(O)COc1ccc(Br)cc1C(=O)c1ccccc1 | 
20 | 448 | 37 | O=C(O)COc1ccc(-c2ccc(Cl)cc2)cc1C(=O)c1cnn(-c2ccccc2)c1 | 
21 | 12 | 1.9 | O=C(O)COc1ccc(Br)cc1C(=O)c1cnn(-c2ccccc2Br)c1 | 
22 | 13 | 1.4 | O=C(O)COc1ccc(Br)cc1C(=O)c1cnn(-c2ccc(Br)cc2)c1 | 
23 | 587 | 48 | Cc1ccc(OCC(=O)O)c(C(=O)c2cnn(-c3ccccc3)c2)c1 | 
24 | 147 | 13 | O=C(O)COc1ccc(-c2cc(F)cc(F)c2)cc1C(=O)c1cnn(-c2ccccc2)c1 | 
25 | 643 | 54 | O=C(O)COc1ccc(Br)cc1/C=N/Nc1cccc2cccnc12 | 
26 | 17 | 1.5 | O=C(O)COc1ccc(Br)cc1C(=O)c1cnn(-c2ccc(Cl)cc2)c1 | 
27 | 31 | 3.4 | O=C(O)COc1ccc(Br)cc1C(=O)c1cnn(-c2cccc(Br)c2)c1 | 
28 | 1320 | 108 | O=C(O)COc1ccc(F)cc1C(=O)c1cnn(-c2ccccc2)c1 | 
29 | 481 | 124 | O=Cc1cc(Br)ccc1OCC(=O)O | 
30 | 485 | 42 | O=C(O)COc1ccc(-c2ccccc2)cc1C(=O)c1cnn(-c2ccccc2)c1 | 
31 | 236 | 47 | O=C(O)COc1ccc([N+](=O)[O-])cc1C(=O)c1cnn(-c2ccccc2)c1 | 
